In US8476298B2 (Exelixis, Inc., priority 2003, dated 2013):
Like-named read-outs stand apart in the source and are kept apart here.

Key:
[1] = biological target: T1, KDR (baculovirus expressed human KDR kinase domain D807-V1356) (Homo sapiens, UniProt P35968); experiment: biochemical;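 further: Luciferase-coupled chemiluminescent kinase assay, activity read as percent ATP left after 4 h reaction at ambient temperature, ATP near KM, 10-point dose-response in 384-well plates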
T1 construct: human KDR kinase domain D807-V1356; host or cells: baculovirus expression

[2] = biological target: T2, Flt-4 (baculovirus expressed human Flt-4 kinase domain D725-R1298) (Homo sapiens, UniProt P35916); experiment: flt-4 Alphascreen Tyrosine Kinase assay; format: biochemical;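 further: AlphaScreen chemiluminescence read-out of biotinylated poly(Glu,Tyr) 4:1 phosphorylation via streptavidin donor and PY100 anti-phosphotyrosine acceptor beads, ATP near KM, 1 hr kinase reaction, 10-point dose-response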
T2 construct: human Flt-4 kinase domain D725-R1298; host or cells: baculovirus expression

[3] = biological target: T3, c-Met (baculovirus expressed human c-Met kinase domain P948-S1343) (Homo sapiens, UniProt P08581); experiment: c-Met Luciferase-Coupled Chemiluminescent Kinase assay (LCCA); format: biochemical;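 further: kinase activity read as percent ATP left after reaction, by luciferase-luciferin chemiluminescence, with 1 µM ATP and 1 µM poly-EY substrate, 2 h at ambient temperature, 10-point dose-response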
T3 construct: human c-Met kinase domain P948-S1343; host or cells: baculovirus expression

[4] = biological target: c-Kit kinase (Homo sapiens, UniProt P10721); experiment: c-Kit AlphaScreen kinase assay; format: biochemical;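 further: c-Kit kinase phosphorylating biotinylated poly(Glu,Tyr), ATP near its KM, 1 h reaction at ambient temperature, AlphaScreen chemiluminescence with streptavidin donor and anti-phosphotyrosine acceptor beads, 10-point inhibitor titration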
[5] = biological target: T4, Flt-3 (baculovirus expressed human Flt-3 kinase domain R571-S993) (Homo sapiens, UniProt P36888); experiment: biochemical; settings: read-out: flt3 IC50;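 further: Luciferase-coupled chemiluminescent kinase assay, activity read as percent ATP left after a 3 h reaction at room temperature, ATP near KM, 10-point dose-response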
T4 construct: human Flt-3 kinase domain R571-S993; host or cells: baculovirus expression
T4 sequence (P36888 571-993): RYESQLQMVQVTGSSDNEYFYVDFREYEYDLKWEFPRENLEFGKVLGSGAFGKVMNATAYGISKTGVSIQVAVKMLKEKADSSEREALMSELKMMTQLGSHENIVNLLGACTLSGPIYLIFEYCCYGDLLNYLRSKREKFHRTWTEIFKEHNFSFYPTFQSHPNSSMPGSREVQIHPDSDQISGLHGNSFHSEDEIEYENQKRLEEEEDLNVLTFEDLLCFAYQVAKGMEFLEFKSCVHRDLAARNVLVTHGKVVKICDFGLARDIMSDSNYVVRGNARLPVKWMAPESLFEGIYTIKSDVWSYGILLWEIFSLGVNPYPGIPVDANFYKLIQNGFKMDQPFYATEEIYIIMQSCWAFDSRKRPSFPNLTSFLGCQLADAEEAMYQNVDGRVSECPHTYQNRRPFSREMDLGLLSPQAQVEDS

[6] = Table 4, inhibition as IC50 class
[7] = Table 4, inhibition as IC50 class, read-out: flt4 IC50

T3 sequence (P08581 1011-1343 limits assumed): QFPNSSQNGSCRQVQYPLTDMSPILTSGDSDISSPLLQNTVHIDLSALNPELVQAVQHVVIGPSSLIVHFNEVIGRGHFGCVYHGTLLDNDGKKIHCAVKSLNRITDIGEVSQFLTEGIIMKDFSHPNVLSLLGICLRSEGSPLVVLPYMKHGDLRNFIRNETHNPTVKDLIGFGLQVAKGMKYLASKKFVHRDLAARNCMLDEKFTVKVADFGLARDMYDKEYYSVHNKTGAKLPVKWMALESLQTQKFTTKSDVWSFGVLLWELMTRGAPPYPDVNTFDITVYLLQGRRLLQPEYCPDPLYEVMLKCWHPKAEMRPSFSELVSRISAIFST
T1 sequence (P35968 807-1356): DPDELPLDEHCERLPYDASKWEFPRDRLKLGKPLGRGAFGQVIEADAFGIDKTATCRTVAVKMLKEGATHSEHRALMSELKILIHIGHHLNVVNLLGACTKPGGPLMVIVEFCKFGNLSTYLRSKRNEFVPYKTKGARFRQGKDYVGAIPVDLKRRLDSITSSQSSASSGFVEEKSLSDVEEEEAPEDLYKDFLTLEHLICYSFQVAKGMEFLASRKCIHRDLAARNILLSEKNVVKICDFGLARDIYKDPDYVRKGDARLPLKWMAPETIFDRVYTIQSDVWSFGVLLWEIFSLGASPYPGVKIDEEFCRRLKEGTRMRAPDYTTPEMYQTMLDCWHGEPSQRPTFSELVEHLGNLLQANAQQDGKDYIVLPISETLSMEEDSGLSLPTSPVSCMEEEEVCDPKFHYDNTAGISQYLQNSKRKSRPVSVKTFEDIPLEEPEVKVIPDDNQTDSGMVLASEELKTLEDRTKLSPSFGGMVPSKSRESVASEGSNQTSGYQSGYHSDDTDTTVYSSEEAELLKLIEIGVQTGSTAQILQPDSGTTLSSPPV
T2 sequence (P35916 725-1298 isoform P35916-1): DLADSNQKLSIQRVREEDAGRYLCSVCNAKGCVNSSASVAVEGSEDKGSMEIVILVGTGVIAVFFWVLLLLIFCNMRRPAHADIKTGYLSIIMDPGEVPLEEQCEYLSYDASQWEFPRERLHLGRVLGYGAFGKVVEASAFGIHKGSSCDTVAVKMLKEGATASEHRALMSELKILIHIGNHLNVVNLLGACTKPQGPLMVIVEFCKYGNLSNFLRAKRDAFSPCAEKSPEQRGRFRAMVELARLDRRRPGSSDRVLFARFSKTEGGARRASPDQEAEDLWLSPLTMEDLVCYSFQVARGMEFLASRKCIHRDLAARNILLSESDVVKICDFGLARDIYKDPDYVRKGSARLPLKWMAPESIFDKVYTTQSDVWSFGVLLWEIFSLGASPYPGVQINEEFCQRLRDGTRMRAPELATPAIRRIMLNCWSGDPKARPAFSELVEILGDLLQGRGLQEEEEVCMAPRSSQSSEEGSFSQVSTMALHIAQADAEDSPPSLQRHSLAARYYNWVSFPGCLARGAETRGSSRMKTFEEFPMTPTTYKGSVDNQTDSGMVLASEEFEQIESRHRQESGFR
Sequence of c-Kit kinase (P10721 26-976): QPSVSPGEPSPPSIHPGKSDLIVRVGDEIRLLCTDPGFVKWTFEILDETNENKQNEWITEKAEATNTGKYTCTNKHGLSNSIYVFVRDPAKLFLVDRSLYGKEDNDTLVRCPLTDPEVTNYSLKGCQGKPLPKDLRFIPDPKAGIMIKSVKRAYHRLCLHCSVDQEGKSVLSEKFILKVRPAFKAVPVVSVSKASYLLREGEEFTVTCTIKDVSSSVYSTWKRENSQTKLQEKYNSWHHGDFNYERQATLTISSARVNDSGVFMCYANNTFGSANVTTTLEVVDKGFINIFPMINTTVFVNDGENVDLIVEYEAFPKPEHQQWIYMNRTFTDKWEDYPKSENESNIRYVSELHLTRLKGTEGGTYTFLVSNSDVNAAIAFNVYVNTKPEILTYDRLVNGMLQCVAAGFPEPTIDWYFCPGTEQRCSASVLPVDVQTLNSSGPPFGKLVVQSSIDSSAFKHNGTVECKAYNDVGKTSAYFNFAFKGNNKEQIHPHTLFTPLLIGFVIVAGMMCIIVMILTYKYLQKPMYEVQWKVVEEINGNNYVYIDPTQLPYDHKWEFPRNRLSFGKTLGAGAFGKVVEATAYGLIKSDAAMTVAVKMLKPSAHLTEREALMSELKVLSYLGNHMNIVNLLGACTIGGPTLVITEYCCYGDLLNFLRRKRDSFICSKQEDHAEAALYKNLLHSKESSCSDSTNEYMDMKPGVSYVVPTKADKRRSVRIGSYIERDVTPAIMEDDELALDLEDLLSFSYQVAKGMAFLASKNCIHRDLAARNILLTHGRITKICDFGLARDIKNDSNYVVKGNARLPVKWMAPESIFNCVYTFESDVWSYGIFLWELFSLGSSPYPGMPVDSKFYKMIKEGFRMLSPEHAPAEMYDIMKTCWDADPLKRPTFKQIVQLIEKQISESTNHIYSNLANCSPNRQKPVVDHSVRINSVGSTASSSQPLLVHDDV

IC50 [1] [µM]	IC50 ([2]; read-out: flt4 IC50) [µM]	IC50 [3] [µM]	IC50 [4] [µM]	IC50 [5] [µM]	IC50 [1, 6] [µM]	IC50 [5, 6] [µM]	IC50 [2, 7] [µM]	IC50 [3, 6] [µM]	IC50 [4, 6] [µM]	IC50 [2] [µM]	SMILES
< 0.05	< 0.05										COc1cc2c(Oc3ccc(NC(=S)NC(=O)Cc4ccccc4)cc3F)ncnc2cc1OCC1C[C@H]2CNC[C@H]2C1 (stereo partly drawn) [Entry 1]
< 0.05	< 0.05	< 0.05	< 0.05								COc1cc2c(Oc3ccc(NC(=S)NC(=O)Cc4ccccc4)cc3F)ncnc2cc1OCC1C[C@@H]2CN(C)C[C@@H]2C1 (stereo partly drawn) [Entry 2]
> 5	0.5 to 5	0.05 to 0.5	0.05 to 0.5								COc1cc2nccc(Oc3ccc(NC(=O)C(=O)N[C@@H]4CCc5ccccc5C4)cc3F)c2cc1OC [Entry 71]
0.05 to 0.5	0.5 to 5	0.05 to 0.5	0.05 to 0.5								COc1cc2nccc(Oc3ccc(NC(=O)C(=O)NCCOc4ccccc4)cc3F)c2cc1OC [Entry 73]
0.5 to 5	0.5 to 5	0.05 to 0.5	0.05 to 0.5	0.5 to 5							COc1cc2nccc(Oc3ccc(N4CC(Cc5ccccc5)N(S(=O)(=O)c5ccc(C)cc5)C4=O)cc3)c2cc1OC (stereo not drawn) [Example 112, 1-(4-{[6,7-bis(methyloxy)quinolin-4-yl]oxy}phenyl)-3-[(4-methylphenyl)sulfonyl]-4-(phenylmethyl)imidazolidin-2-one]
					< 0.05	< 0.05	< 0.05	< 0.05	0.05 to 0.5		COc1cc2c(Oc3ccc(NC(=O)C(=O)NCc4ccc(F)c(C(F)(F)F)c4)cc3F)ccnc2cc1OCC1CCNCC1 [Example 216, N-[3-fluoro-4-({6-(methyloxy)-7-[(piperidin-4-ylmethyl)oxy]quinolin-4-yl}oxy)phenyl]-N′-{[4-fluoro-3-(trifluoromethyl)phenyl]methyl}ethanediamide]
					< 0.05	< 0.05	< 0.05	< 0.05	< 0.05		COc1cc2c(Oc3ccc(NC(=O)C(=O)NCc4cc(Cl)cc(Cl)c4)cc3F)ccnc2cc1OCC1CCNCC1 [Example 217, N-[(3,5-dichlorophenyl)methyl]-N′-[3-fluoro-4-({6-(methyloxy)-7-[(piperidin-4-ylmethyl)oxy]quinolin-4-yl}oxy)phenyl]ethanediamide]
					0.05 to 0.5	0.05 to 0.5	< 0.05	< 0.05	0.05 to 0.5		COc1cc2c(Oc3ccc(NC(=O)C(=O)N[C@@H]4CCCc5ccccc54)cc3F)ccnc2cc1OCC1CCNCC1 [Example 218, N-[3-fluoro-4-({6-(methyloxy)-7-[(piperidin-4-ylmethyl)oxy]quinolin-4-yl}oxy)phenyl]-N′-[(1R)-1,2,3,4-tetrahydronaphthalen-1-yl]ethanediamide]
					< 0.05	< 0.05	< 0.05	< 0.05	< 0.05		COc1cc2c(Oc3ccc(NC(=O)C(=O)N[C@H]4CCCc5ccccc54)cc3F)ccnc2cc1OCC1CCNCC1 [Example 219, N-[3-fluoro-4-({6-(methyloxy)-7-[(piperidin-4-ylmethyl)oxy]quinolin-4-yl}oxy)phenyl]-N′-[(1S)-1,2,3,4-tetrahydronaphthalen-1-yl]ethanediamide]
					0.05 to 0.5	0.05 to 0.5	0.05 to 0.5	< 0.05	0.05 to 0.5		COc1cc2c(Oc3ccc(NC(=O)C(=O)NC4CCCC4)cc3F)ccnc2cc1OCC1CCNCC1 [Example 220, N-cyclopentyl-N′-[3-fluoro-4-({6-(methyloxy)-7-[(piperidin-4-ylmethyl)oxy]quinolin-4-yl}oxy)phenyl]ethanediamide]
					0.05 to 0.5	0.05 to 0.5	0.05 to 0.5	< 0.05	0.05 to 0.5		COc1cc2c(Oc3ccc(NC(=O)C(=O)NC(C)c4ccc(Br)cc4)cc3F)ccnc2cc1OCC1CCNCC1 (stereo not drawn) [Example 221, N-[1-(4-bromophenyl)ethyl]-N′-[3-fluoro-4-({6-(methyloxy)-7-[(piperidin-4-ylmethyl)oxy]quinolin-4-yl}oxy)phenyl]ethanediamide]
					< 0.05	0.05 to 0.5	< 0.05	< 0.05	0.05 to 0.5		COc1cc2c(Oc3ccc(NC(=O)C(=O)NCc4cccc(F)c4F)cc3F)ccnc2cc1OCC1CCNCC1 [Example 225, N-[(2,3-difluorophenyl)methyl]-N′-[3-fluoro-4-({6-(methyloxy)-7-[(piperidin-4-ylmethyl)oxy]quinolin-4-yl}oxy)phenyl]ethanediamide]
					< 0.05	< 0.05	< 0.05	< 0.05	< 0.05		COc1cc2c(Oc3ccc(NC(=O)C(=O)NCCOc4ccccc4)cc3F)ccnc2cc1OCC1CCNCC1 [Example 226, N-[3-fluoro-4-({6-(methyloxy)-7-[(piperidin-4-ylmethyl)oxy]quinolin-4-yl}oxy)phenyl]-N′-[2-(phenyloxy)ethyl]ethanediamide]
					0.05 to 0.5	< 0.05	0.05 to 0.5	< 0.05	0.05 to 0.5		COc1cc2c(Oc3ccc(NC(=O)C(=O)NCC(c4ccccc4)c4ccccc4)cc3F)ccnc2cc1OCC1CCNCC1 [Example 227, N-(2,2-diphenylethyl)-N′-[3-fluoro-4-({6-(methyloxy)-7-[(piperidin-4-ylmethyl)oxy]quinolin-4-yl}oxy)phenyl]ethanediamide]
					0.05 to 0.5	0.05 to 0.5		< 0.05	< 0.05		COc1ccc(CNC(=O)C(=O)Nc2ccc(Oc3ccnc4cc(OCC5CCN(C)CC5)c(OC)cc34)c(F)c2)cc1 [Example 247, N-{3-fluoro-4-[(6-(methyloxy)-7-{[(1-methylpiperidin-4-yl)methyl]oxy}quinolin-4-yl)oxy]phenyl}-N′-{[4-(methyloxy)phenyl]methyl}ethanediamide]
					0.05 to 0.5	0.05 to 0.5		0.05 to 0.5	0.05 to 0.5		COc1cc2c(Oc3ccc(NC(=O)C(=O)NCC(O)c4ccccc4)cc3F)ccnc2cc1OCC1CCNCC1 (stereo not drawn) [Example 251, N-[3-fluoro-4-({6-(methyloxy)-7-[(piperidin-4-ylmethyl)oxy]quinolin-4-yl}oxy)phenyl]-N′-(2-hydroxy-2-phenylethyl)ethanediamide]
					0.05 to 0.5	0.05 to 0.5		< 0.05	0.5 to 5		CC[C@H](NC(=O)C(=O)Nc1ccc(Oc2ccnc3cc(OCC4CCNCC4)c(OC)cc23)c(F)c1)c1ccccc1 [Example 255, N-[3-fluoro-4-({6-(methyloxy)-7-[(piperidin-4-ylmethyl)oxy]quinolin-4-yl}oxy)phenyl]-N′-[(1S)-1-phenylpropyl]ethanediamide]
					< 0.05	0.05 to 0.5		< 0.05	0.5 to 5		COc1cc2c(Oc3ccc(NC(=O)C(=O)NCc4cc(C(F)(F)F)cc(C(F)(F)F)c4)cc3F)ccnc2cc1OCC1CCNCC1 [Example 272, N-{[3,5-bis(trifluoromethyl)phenyl]methyl}-N′-[3-fluoro-4-({6-(methyloxy)-7-[(piperidin-4-ylmethyl)oxy]quinolin-4-yl}oxy)phenyl]ethanediamide]
					0.5 to 5	0.05 to 0.5		0.05 to 0.5	0.5 to 5		COc1cc2c(Oc3ccc(NC(=O)C(=O)NCc4cnccn4)cc3F)ccnc2cc1OCC1CCNCC1 [Example 273, N-[3-fluoro-4-({6-(methyloxy)-7-[(piperidin-4-ylmethyl)oxy]quinolin-4-yl}oxy)phenyl]-N′-(pyrazin-2-ylmethyl)ethanediamide]
										0.00558	COc1cc2nccc(Oc3ccc(NC(=O)C4(C(=O)Nc5ccc(F)cc5)CC4)cc3)c2cc1OC [Example 289, N-(4-{[6,7-bis(methyloxy)quinolin-4-yl]oxy}phenyl)-N′-(4-fluorophenyl)cyclopropane-1,1-dicarboxamide]
0.05 to 0.5		< 0.05	0.05 to 0.5	< 0.05							COc1cc2nccc(Oc3ncc(NC(=O)C4(C(=O)Nc5ccccc5)CC4)cc3Cl)c2cc1OC [Example 305, N-(6-{[6,7-bis(methyloxy)quinolin-4-yl]oxy}-5-chloropyridin-3-yl)-N′-phenylcyclopropane-1,1-dicarboxamide]
	< 0.05		< 0.05	< 0.05							COc1cc2nccc(Oc3ccc(NC(=O)C4(C(=O)Nc5ccc(F)cc5)CC4)cc3F)c2cc1OC [Example 319, N-(4-{[6,7-bis(methyloxy)quinolin-4-yl]oxy}-3-fluorophenyl)-N′-(4-fluorophenyl)cyclopropane-1,1-dicarboxamide]
< 0.05	< 0.05		< 0.05	< 0.05							COc1cc2c(Oc3ccc(NC(=O)C4(C(=O)Nc5ccc(F)cc5)CC4)cc3)ccnc2cc1OCCCN1CCOCC1 [Example 335, N-(4-fluorophenyl)-N′-[4-({6-(methyloxy)-7-[(3-morpholin-4-ylpropyl)oxy]quinolin-4-yl}oxy)phenyl]cyclopropane-1,1-dicarboxamide]
